According to ChEMBL document CHEMBL1671730, “Rapid and sensitive liquid chromatography/mass spectrometry assay for caspofungin in human aqueous humor” (Antimicrob Agents Chemother, 2010):

Experiments:
Format in all cases: ADME, organism-based, Aqueous humor of eyeball
Details in all cases: in vivo
[1] = species on record: Homo sapiens; assay: Drug level in human aqueous humor sample measured on basis of intraday target compound concentration of 4000 ng/ml by LC/MS method
[2] = species on record: Homo sapiens; assay: Drug level in human aqueous humor sample measured on basis of interday target compound concentration of 30 ng/ml by LC/MS method
[3] = species on record: Homo sapiens; assay: Drug level in human aqueous humor sample measured on basis of interday target compound concentration of 300 ng/ml by LC/MS method
[4] = species on record: Homo sapiens; assay: Drug level in human aqueous humor sample measured on basis of interday target compound concentration of 4000 ng/ml by LC/MS method
[5] = species on record: Homo sapiens; assay: Drug level in human aqueous humor sample measured on basis of intraday target compound concentration of 30 ng/ml by LC/MS method
[6] = species on record: Homo sapiens; assay: Drug level in human aqueous humor sample measured on basis of intraday target compound concentration of 300 ng/ml by LC/MS method

CC[C@H](C)C[C@H](C)CCCCCCCCC(=O)N[C@H]1C[C@@H](O)[C@@H](NCCN)NC(=O)[C@@H]2[C@@H](O)CCN2C(=O)[C@H]([C@H](O)CCN)NC(=O)[C@H]([C@H](O)[C@@H](O)c2ccc(O)cc2)NC(=O)[C@@H]2C[C@@H](O)CN2C(=O)[C@H]([C@@H](C)O)NC1=O [CASPOFUNGIN]
Drug uptake [1]: 3986 ng/mL | Drug uptake [2]: 31.4 ng/mL | Drug uptake [3]: 282 ng/mL | Drug uptake [4]: 3965 ng/mL | Drug uptake [5]: 26.9 ng/mL | Drug uptake [6]: 280 ng/mL
